Assay results as given in PMC7565988, “Insight into the Anticancer Activity of Copper(II) 5-Methylenetrimethylammonium-Thiosemicarbazonates and Their Interaction with Organic Cation Transporters” (Biomolecules, 2020).
Where two headings read alike, the source gives them in different places.

What was measured:
[1] = Redox reaction of copper(II) complexes with GSH, anaerobic UV/Vis kinetics; format: physicochemical; settings: copper(II) complex (1–4) of the proligand, pH = 7.4, ccomplex = 25 μM, cGSH = 1.25 mM
Method: The redox reactions of the copper(II) complexes with GSH and AA were studied at 25.0 ± 0.1 °C on Hewlett Packard 8452A diode array spectrophotometer using a special, tightly closed tandem cuvette (Hellma Tandem Cell, 238-QS). The reactants were separated until the reaction was triggered. Both isolated pockets of the cuvette were completely deoxygenated by bubbling a stream of argon for 10–15 min before mixing the reactants. Spectra were recorded before and then immediately after the mixing, and changes were followed until no further absorbance change was observed. One of the isolated pockets contained the reducing agent and its concentration was 1250 μM and the other contained 25 μM copper(II) complex. The pH of all the solutions was adjusted to 7.40 by 50 mM HEPES buffer and an ionic strength of 0.1 M (KCl) was applied. The stock solutions of the reducing agents and the complexes were freshly prepared every day. During the calculations, the absorbance (A) − time (t) curves were fitted and analysed at the λmax of the complex. (A0 − Afinal) × e^(−a×t) + Afinal equation was used where A0, Afinal and a parameters were refined and accepted at the minimal value of the weighted sum of squared residuals (difference between the measured and calculated absorbance values) at the given wavelength. Then observed rate constants (kobs) of the redox reaction were obtained from the data points of the simulated absorbance–time curves as the slope of the ln(A/A0) versus t plots.

[2] = 1H NMR titration, pKa of E/Z isomers; format: physicochemical; settings: 10% D2O/H2O, cL = 200 μM, I = 0.1 M (KCl), 25 °C
Method: ^1H NMR spectroscopic studies were carried out on a Bruker Avance III HD instrument (Bruker BioSpin GmbH, Rheinstetten, Germany). All spectra were recorded with the WATERGATE water suppression pulse scheme using DSS internal standard.

[3] = ABTS decolourisation assay, Trolox equivalent antioxidant capacity; settings: water/DMSO (20% v/v), absorbance at 735 nm
Method: (§1) The generation of paramagnetic intermediates was monitored by cw-EPR spectroscopy using the EMXplus spectrometer and spin trapping technique. Deionised water was used for preparation of aqueous solutions. The spin trapping agent 5,5-dimethyl-1-pyrroline N-oxide (DMPO; Sigma-Aldrich) was distilled prior to the application. The EPR spectra were measured with following experimental parameters: X-band, room temperature, microwave frequency, 9.448 GHz; 100 kHz field modulation amplitude, 2 G; time constant, 10 ms; scan time, 21 s (three scans). Glutathione from Sigma-Aldrich; 6-hydroxy-2,5,7,8-tetramethylchroman-2-carboxylic acid (Trolox, 97%, Sigma-Aldrich); K2S2O8 (p.a. purity, Merck); 2,2′-azinobis [3-ethylbenzothiazoline-6-sulfonic acid] (ABTS; purum, >99%; Fluka) were used as received. Deionised high-purity grade H2O, with conductivity of […], was produced by using the TKA H2O purification system (Water Purification Systems GmbH, D-Niederelbert). For the ABTS decolourisation assay, the radical cations were pre-formed by the reaction of an aqueous solution of K2S2O8 (3.30 mg) in H2O (5 mL) with ABTS (17.2 mg). The resulting bluish-green radical cation (ABTS^•+) solution was stored overnight in the dark. […] The optical spectra were recorded from 1 to 40 min in 1 cm quartz UV cuvette after mixing the sample water/DMSO solution with ABTS^•+ in mixed solvent water/DMSO (20% (v/v)).

[4] = EPR spin trapping (DMPO/H2O2), ROS generation in cell-free media; settings: DMPO/H2O2 aqueous system
Method: as §1

For `CNC(=S)N/N=C/c1cc(C[N+](C)(C)C)ccc1O` [[H2L^Me]Cl], the “kobs, observed rate constant of the redox reaction with GSH” value (shortened to “kobs, observed rate constant”) [1] was 0.073 ± 0.002 min⁻¹.
In the case of `C[N+](C)(C)Cc1ccc(O)c(/C=N/NC(=S)Nc2ccccc2)c1` [[H2L^Ph]Cl], the “kobs, observed rate constant” value [1] is reported as 0.025 ± 0.005 min⁻¹.
With `C[N+](C)(C)Cc1ccc(O)c(/C=N/NC(N)=S)c1` [[H2L^H]Cl] the pKa ([2]; read-out: pKa of major E isomer) was 7.51, the pKa ([2]; read-out: pKa of minor Z isomer) was 6.95 and the “kobs, observed rate constant” value [1] was 0.080 ± 0.008 min⁻¹. For the same molecule, the “Trolox equivalent antioxidant capacity (TEAC)” value [3] was 0.74 and the radical formation [4] was “no radical formation”.
For `CCNC(=S)N/N=C/c1cc(C[N+](C)(C)C)ccc1O` [[H2L^Et]Cl], the “kobs, observed rate constant” value [1] was 0.058 ± 0.001 min⁻¹.
